Data on 19 compounds can be found in ChEMBL document CHEMBL1129119, “N-Benzylated benzimidazol-2-one derivatives: activators of large-conductance Ca2+-dependent K+ channels” (1996).

A short description of this test: Tested for maxi-K channel opening property using two -electrode voltage clamp recording from Xenopus laevis oocytes at 20 uM. It is filed as functional, frog, Oocyte.

The structures appear in SMILES notation.

With `O=c1[nH]c2cc(C(F)(F)F)ccc2n1Cc1cc(Cl)ccc1O`, the Control current is listed as 133.4%.
As for `O=[N+]([O-])c1ccc2c(c1)nc(O)n2Cc1cc(Cl)ccc1O`, the Control current is recorded as 163.1%.
To `Cc1ccc2c(c1)nc(O)n2Cc1cc(Cl)ccc1O` belongs 101.9%; to `Oc1ccc(Cl)cc1Cn1c(O)nc2ccncc21`, 100.8%.
Take `Oc1ccc(Cl)cc1Cn1c(O)nc2cc(F)ccc21`: the Control current was found to be 105.9%.
Under `COc1ccc(Cl)cc1Cn1c(O)nc2ccccc21` stands 104.2%.
To `Oc1ccc(Cl)cc1Cn1c(O)nc2cc(I)ccc21` belongs 120.2%; to `Oc1ccc(Cl)cc1Cn1c(O)nc2ccc(Cl)cc21`, 116.3%; to `Oc1ccc(Cl)cc1Cn1c(O)nc2ccccc21`, 110.9%.
Under `Oc1ccc(Cl)cc1Cn1c(O)nc2cnccc21` stands 107.2%; under `O=c1[nH]c2cc(C(F)(F)F)ccc2n1-c1cc(Cl)ccc1O`, 131.8%; under `Oc1ccc2c(c1)nc(O)n2Cc1cc(Cl)ccc1O`, 106%.
In turn, `Oc1ccc(Cl)cc1Cn1c(O)nc2ccc(Br)cc21` showed a Control current of 107.9%.
Consider `Oc1ccc(Cl)cc1Cn1c(O)nc2cc(Cl)cc(Cl)c21`, for which the Control current was found to be 118.3%.
To `Oc1ccc(Cl)cc1Cn1c(O)nc2cc(Cl)c(Cl)cc21` belongs 145.8%; to `Oc1ccc(Cl)cc1Cn1c(O)nc2cc(Br)ccc21`, 135.7%.
To `Oc1ccc(Cl)cc1Cn1c(O)nc2cc(Cl)ccc21` belongs 150.1%.
To `Oc1ccccc1Cn1c(O)nc2cc(C(F)(F)F)ccc21` belongs 126%; to `Oc1ccccc1CCn1c(O)nc2cc(C(F)(F)F)ccc21`, 119.5%.
